Data published in ChEMBL document CHEMBL2321868, “The discovery of novel potent trans-3,4-disubstituted pyrrolidine inhibitors of the human aspartic protease renin from in silico three-dimensional (3D) pharmacophore searches” (J Med Chem, 2013).

Experiments:
[1] = biological target: T1, Renin (Homo sapiens, UniProt P00797); assay: Inhibition of human recombinant renin expressed in CHO cells using RE(EDANS)IHPFHLVIHTK(Dabcyl)R as substrate incubated for 1 hr prior to substrate addition measured after 2 hrs by FRET-based enzymatic assay
T1 sequence (P00797 whole entry): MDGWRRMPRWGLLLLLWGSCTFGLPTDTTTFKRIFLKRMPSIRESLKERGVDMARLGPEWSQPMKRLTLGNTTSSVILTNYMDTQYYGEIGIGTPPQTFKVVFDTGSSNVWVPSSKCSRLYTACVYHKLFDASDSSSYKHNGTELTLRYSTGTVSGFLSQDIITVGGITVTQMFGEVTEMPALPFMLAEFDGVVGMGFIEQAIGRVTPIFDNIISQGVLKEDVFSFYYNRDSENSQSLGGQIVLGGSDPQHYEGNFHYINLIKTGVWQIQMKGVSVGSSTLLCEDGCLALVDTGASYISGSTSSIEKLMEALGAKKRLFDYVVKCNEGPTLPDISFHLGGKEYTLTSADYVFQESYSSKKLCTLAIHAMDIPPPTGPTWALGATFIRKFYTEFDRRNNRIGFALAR

[2] = biological target: T2, Renin (Homo sapiens) (UniProt P00797); assay: Inhibition of human recombinant renin expressed in CHO cells using RE(EDANS)IHPFHLVIHTK(Dabcyl)R as substrate at 10 uM incubated for 1 hr prior to substrate addition measured after 2 hrs by FRET-based enzymatic assay
T2 sequence (whole entry): T1 sequence (P00797 whole entry)

[3] = Inhibition of human recombinant pepsin A expressed in Escherichia coli using Dabcyl-E-R-Nle-F-L-S-F-P-EDANS as substrate incubated for 1 hr prior to substrate addition measured after 1 hr by FRET-based enzymatic assay
[4] = biological target: Cathepsin D (Homo sapiens, UniProt P07339); assay: Inhibition of human recombinant cathepsin-D expressed in baculovirus-infected insect sf9 cells using Ac- E-D(EDANS)-KPILFFRLG-K(Dabcyl)-E-Amid as substrate incubated for 1 hr prior to substrate addition measured after 1 hr by FRET-based enzymatic assay
Cathepsin D, sequence (P07339 65-162 limits assumed): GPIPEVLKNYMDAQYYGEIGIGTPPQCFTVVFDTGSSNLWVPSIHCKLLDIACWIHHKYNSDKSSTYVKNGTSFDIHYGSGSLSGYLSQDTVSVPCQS
Cathepsin D, sequence (P07339 169-412 limits assumed): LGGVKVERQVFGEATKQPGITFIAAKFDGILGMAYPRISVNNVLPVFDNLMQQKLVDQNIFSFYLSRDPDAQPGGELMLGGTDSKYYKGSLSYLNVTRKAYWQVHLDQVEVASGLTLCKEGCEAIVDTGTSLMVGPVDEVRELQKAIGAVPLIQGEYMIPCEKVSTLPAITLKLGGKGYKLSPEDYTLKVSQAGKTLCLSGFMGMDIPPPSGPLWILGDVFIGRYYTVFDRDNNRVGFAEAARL

[5] = biological target: T3, Gastricsin (Homo sapiens, UniProt P20142); assay: Inhibition of human recombinant pepsin C expressed in Escherichia coli using Dabcyl-E-R-Nle-F-L-S-F-P-EDANS as substrate incubated for 1 hr prior to substrate addition measured after 1 hr by FRET-based enzymatic assay
T3 sequence (P20142 whole entry): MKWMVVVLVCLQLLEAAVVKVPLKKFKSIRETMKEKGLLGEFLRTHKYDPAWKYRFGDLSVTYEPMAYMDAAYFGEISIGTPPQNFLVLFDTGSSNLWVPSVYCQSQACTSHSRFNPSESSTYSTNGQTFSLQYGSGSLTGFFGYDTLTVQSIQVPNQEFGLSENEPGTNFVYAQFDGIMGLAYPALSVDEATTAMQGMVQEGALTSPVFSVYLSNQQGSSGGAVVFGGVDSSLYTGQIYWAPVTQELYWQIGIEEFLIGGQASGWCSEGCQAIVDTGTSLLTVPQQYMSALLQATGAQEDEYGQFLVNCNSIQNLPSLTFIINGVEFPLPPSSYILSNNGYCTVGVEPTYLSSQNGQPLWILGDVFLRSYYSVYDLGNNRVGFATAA

[6] = biological target: T4, Cathepsin E (Homo sapiens, UniProt P14091); assay: Inhibition of human recombinant cathepsin-E expressed in Escherichia coli using Ac- E-D(EDANS)-KPILFFRLG-K(Dabcyl)-E-Amid as substrate incubated for 1 hr prior to substrate addition measured after 1 hr by FRET-based enzymatic assay
T4 sequence (P14091 whole entry): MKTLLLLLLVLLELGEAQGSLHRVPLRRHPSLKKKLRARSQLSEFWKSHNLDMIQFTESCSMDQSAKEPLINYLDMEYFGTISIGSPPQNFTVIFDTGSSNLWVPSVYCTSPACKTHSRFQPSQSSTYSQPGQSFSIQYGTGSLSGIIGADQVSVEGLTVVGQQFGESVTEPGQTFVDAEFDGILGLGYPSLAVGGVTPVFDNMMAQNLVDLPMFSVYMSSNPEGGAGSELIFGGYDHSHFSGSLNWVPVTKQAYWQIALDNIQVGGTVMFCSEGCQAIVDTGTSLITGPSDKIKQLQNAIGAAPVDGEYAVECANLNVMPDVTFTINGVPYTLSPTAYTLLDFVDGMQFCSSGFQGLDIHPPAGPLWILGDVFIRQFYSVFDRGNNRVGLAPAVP

| SMILES | IC50 [1] [µM] | also measured |
| --- | --- | --- |
| COCCCOc1cc(C(=O)N(C[C@H]2CNC[C@@H]2Cc2ccccc2)C(C)C)ccc1OC | 2.7 | – |
| COCCCOc1cc(CN(CC2CNCC2Cc2ccccc2)c2ccc(Cl)cc2)ccc1OC (racemic) | 9.8 | – |
| c1ccc([C@H]2CCNC[C@@H]2OCc2ccc3ccccc3c2)cc1 | – | inhibition [2]: 34% |
| Clc1ccc(N(C[C@H]2CNC[C@@H]2Cc2ccccc2)c2ccccc2)cc1 | 18 | – |
| COCCCOc1cc(CN(CC2CNCC2Cc2ccccc2)C(C)C)ccc1OC (racemic) | 7.7 | – |
| Clc1ccc(N(C[C@@H]2CNC[C@H]2Cc2ccccc2)c2ccccc2)cc1 | 7.6 | IC50 [3]: 4.5 µM; IC50 [4]: 11 µM; IC50 [5]: 29 µM; IC50 [6]: 11 µM |

Further lines, with some results ahead:

| IC50 [1] [µM] | SMILES | also measured |
| --- | --- | --- |
| 0.45 | COCCCOc1cc(C(=O)N(CC2CNCC2Cc2ccccc2)C(C)C)ccc1OC (racemic) | – |
| 1.7 | COCCCOc1cc(C(=O)N(CC2CNCC2Cc2ccccc2)c2ccc(Cl)cc2)ccc1OC (racemic) | – |
| 14 | Clc1ccc(N(CC2CNCC2Cc2ccccc2)c2ccccc2)cc1 (racemic) | – |
| 4.1 | Clc1ccc(N(Cc2ccccc2)CC2CNCC2Cc2ccccc2)cc1 (racemic) | – |
| 1.9 | COCCCOc1cc(C(=O)N(CC2CNCC2Cc2ccccc2)c2ccccc2)ccc1OC (racemic) | – |
